{"source": "patent US10703777B2", "about": "“Miniature protein scaffolds and methods for use thereof” (New York University, priority 2017, dated 2020)", "format_in_all_cases": "physicochemical", "key": {"[1]": {"assay": "Guanidinium chloride (GnCl) titration monitored by near-UV CD at 280 nm", "conditions": "standard aqueous conditions at 25° C.; extrapolated from variable GnCl concentration near-UV CD data (280 nm), 50 μM protein", "experimental": "CD spectra were collected using an Aviv (Lakewood, N.J.) stopped flow CD Spectropolarimeter Model 202SF. The far-UV (190-260 nm) CD spectra were obtained using a 1 mm path length cell and in 10 mM PBS buffer at a pH of 7.5 at 100 μM protein concentrations. The near-UV (245-320 nm) CD spectra were obtained using a 1 cm path length cell and in 10 mM PBS buffer at a pH of 7.5 at 50 μM concentrations. The consensus CD spectra were established as the Gaussian weighted average of 40 scans with evaluation of ellipticity every 0.5 nm, each having an averaging time of 0.5 s. […] Concentrations of protein stock solutions for conversion of millidegrees to mean residue ellipticity (MRE) were determined by UV absorbance at 280 nm using the standard extinction coefficients for the tryptophan (5690 M-1 cm-1), tyrosine (1280M-1 cm-1), and disulfide-bridged cysteine (125M-1 cm-1) chromophores in 6 M GnCl. […]\nSecondary and tertiary structure content of the mini-protein was initially evaluated using circular dichroism (CD) spectroscopy (FIG. 4A,B). In the near-UV (260-320 nm) CD spectrum, ellipticity can arise from indole and phenol absorbance bands when tryptophan or tyrosine side chains are present in an asymmetric environment. […]"}, "[2]": {"assay": "Sedimentation equilibrium analysis", "conditions": "concentration of 1.8 mM at 4° C.", "experimental": "Sedimentation equilibrium measurements were carried out on a Beckman (Brea, Calif.) XL-A analytical ultracentrifuge equipped with absorption optics and an An-60 Ti rotor. Analysis was conducted at rotor speeds of 45,000 and 48,000 rpm at 4° C. Data were acquired at two wavelengths per rotor speed setting and processed globally for the best fit to a single-species model of absorbance versus radial distance. Solvent density and protein partial specific volume were calculated according to solvent and protein composition, respectively.\nThe native sequence on which to initiate the mini-protein design was chosen based on two primary criteria. First, the present inventors sought a sequence containing a loop featuring a β-hairpin, which could be nucleated using a D-Pro-Gly motif (2, 7). Most of the loop regions observed in WSXWS motifs are lacking in canonical forms of secondary structure that could be enforced with rational peptide design (FIG. 2). Second, the present inventors wanted a sequence containing three arginine residues on the β-strand portion of the fold composing the cation-π interaction network. The only sequence meeting these two criteria was that of the WSXWS motif found in IL3RB (UniprotID: P32927). […] The apparent molecular mass was within 10% of that calculated for an ideal monomer, with no systematic deviation of the residuals. […]"}, "[3]": {"assay": "Near-UV CD thermal melts monitoring mean residue ellipticity at 280 nm", "conditions": "10 mM PBS buffer pH 7.5, elevated temperatures", "experimental": "FIGS. 6A-6B. Near-UV CD thermal melts for the TrpPlexus cation-π interation network mutants. (6A) Schematic of the cation-π network of TrpPlexus detailing variable amino acid positions 1, 3, and 5 in the mutant sequences. (6B) Near-UV CD thermal melts for TrpPlexus (“RRR”) and each mutant monitoring mean residue ellipticity at 280 nm (50 μM protein, 1 cm path length, 10 mM PBS buffer pH 7.5). Inset compares side-chain functionalities of the arginine (R), lysine (K), and L-citrulline (Cit) residues.\nCD spectra were collected using an Aviv (Lakewood, N.J.) stopped flow CD Spectropolarimeter Model 202SF. […] Concentrations of protein stock solutions for conversion of millidegrees to mean residue ellipticity (MRE) were determined by UV absorbance at 280 nm using the standard extinction coefficients for the tryptophan (5690 M-1 cm-1), tyrosine (1280M-1 cm-1), and disulfide-bridged cysteine (125M-1 cm-1) chromophores in 6 M GnCl. […]\nTo explore the influence of cationic groups on fold stability, mutants were designed that replaced particular guanidinyl (arginine) side chain groups with either amino (lysine) cations or charge-neutral urea (L-citrulline) groups (FIG. 6). The near-UV CD signal monitored at 280 nm provides a metric of relative tertiary structure content (FIG. 6B). […]"}}, "note": "“Also recorded” adds a separate entry of the source.", "data": [{"substance": "RVRVRTSRpGYNGTWSEWS [TrpPlexus]", "values": [{"measurement": "ΔG° for folding", "setting": "[1]", "result": "approximately −6.7 kcal/mol"}, {"measurement": "oligomeric state by sedimentation equilibrium", "setting": "[2]", "result": "monomeric"}, {"measurement": "near-UV CD signal as a function of temperature (thermostability)", "setting": "[3]", "result": "slightly increase in strength at elevated temperatures, indicating thermostability; also recorded: weakly sigmoidal transitions to stronger ellipticities at elevated temperatures"}]}]}
